Experimental data taken from patent publication US20170252362A1, “METHODS & COMPOUNDS USEFUL IN HEMATOPOIETIC STEM CELL MEDICINE” (ECOLE POLYTECHNIQUE FEDERALE DE LAUSANNE (EPFL), priority 2014, published 2017).

Tests used:
[1] = system: HSC activity of donor bone marrow; test: Transplantation of BM derived from agent-treated donor mice (engraftment, blood chimerism); format: in vivo, mouse; conditions: Example 8, FIG. 9C, compared to control group
Excerpt: Therefore, NR-treatment is not expected to exhaust the LT-HSC population, which is often the problem when increasing short-term HSCs and their progeny.

[2] = system: blood recovery and survival of transplanted mice; test: Survival and blood recovery of lethally irradiated, transplanted mice treated with the agent; format: in vivo, mouse; conditions: Example 8, FIG. 9D, treated recipients versus control
Description: Given the dependency of differentiated hematopoietic cells to the progenitor compartments, the effect of a mitochondrial membrane potential reducing agent according to the invention, in particular NR, in improving blood recovery and survival of transplanted mice was assessed. Peripheral blood count started at day 13 after transplantation, and it was repeated every 3 or 4 days.
(§1) C57Bl/6J and C57Bl/6J Ly5.1 were purchased from Charles River Laboratories International and maintained in micro-isolator cages. Mice were provided continuously with sterile food, water and bedding. Nicotinamide riboside (NR) (custom synthesized as triflate salt by Novalix in Strasbourg) was supplied in the food at 0.4 g/Kg mouse and mice were treated for 1 and 4 weeks respectively.

[3] = system: hematopoietic stem and progenitor pool sizes in the bone marrow; test: Flow cytometry analysis of hematopoietic stem and progenitor pool sizes in bone marrow of mice fed the agent; format: in vivo, mouse; conditions: Example 8, one week treatment, FIG. 9A
Description: Bone marrow (BM) cells were isolated from C57Bl/6J and C57Bl/6J Ly5.1 from crushed femora and tibia. Flow cytometry analysis of hematopoietic stem and progenitor cells was performed on freshly isolated bone marrow (BM). Cell suspensions were filtered through a 70 μm cell strainer and erythroid cells were eliminated by incubation with red blood cells lysis buffer (eBioscences). Lineage-positive cells were removed with a magnetic lineage depletion kit (Miltenyi Biotech). Cell suspensions were stained with a panel of specific antibodies for stem and progenitor cells and analyzed or FACS-sorted respectively on a BD LSRII and BD FACS Aria II.
as §1

[4] = system: hematopoietic progenitor compartments; test: Colony-forming functional assay (CFUs, Methocult) on BM derived from agent-treated mice; format: in vivo, mouse; conditions: Example 8, FIG. 9B
[5] = system: HSC mitochondrial activity; test: In vivo assay of HSC mitochondrial activity: TMRM flow cytometry of freshly isolated HSC from mice fed the compounds; parameters: species or system mouse; conditions: mice fed with the compounds
Excerpt: The effect of agents on HSC mitochondrial activity has been assessed by measuring mitochondrial activity in vivo: freshly isolated HSC from mice fed with the compounds were stained by TMRM and analyzed by flow cytometry.

[6] = system: HSCs; test: In vivo activation of HSC by IFN-α, cell cycle (Ki67) and ΔΨm analysis; parameters: species or system mouse
Description: In order to verify this hypothesis, cell cycle phase analyses were performed using Ki67 and Hoechst staining as described below on freshly isolated HSCs that were separated into low and high ΔΨm. […] Under homeostatic conditions, quiescent state, corresponding to ca. 70% of cells, and cycling HSCs have indistinguishable ΔΨm profiles.
A similar analysis was performed on HSCs that were activated to exit dormancy directly in vivo using interferon-alpha (IFN-α) treatment of mice (Essers et al., 2009, Nature 458, 904-908) through subcutaneous injections of IFN-α carried out 48 and 24 hours prior to cell isolation.
HSC were activated to exit dormancy by interferon-alpha (IFN-α) treatment following published protocols (Essers et al., 2009, supra). Briefly, subcutaneous injections in C57B1/6J mice were carried out with 10,000 U of IFN-α (R&D systems) 48 and 24 hours prior to bone marrow extraction. Control mice were injected with an equivalent volume of the vehicle (PBS+0.1% BSA).

In the case of `Cc1cnc(C(=O)O)c[n+]1[O-]` [Acipimox, acipimox, reference compound], the “short-term HSC activity of transplanted BM from treated donors (blood chimerism)” value [1] is reported as “no significant difference” and the “blood recovery of post-transplanted mice (platelets, granulocytes/neutrophils)” value [2] is reported as “slower platelet and granulocyte recovery”.

In the case of `O=C(O)c1cccnc1` [NA, nicotinic acid, reference compound], the “number of hematopoietic stem cells (ST-HSC / most primitive HSC) by flow cytometry” value [3] is reported as “do not show a significant difference”, the “Megakaryocytes (MkE) colonies” value [4] is reported as “reduction of Megakaryocytes (MkE) colonies” and the “progenitor population / total and myeloid colonies in CFUs from BM of treated mice” value [4] is reported as “do not show a significant difference in total and myeloid colonies”. For the same compound, the “ability to reduce mitochondrial membrane potential in HSCs” value [5] was “not able to significantly reduce mitochondrial membrane potential in HSCs”.

With IFN-α the “ΔΨm levels of quiescent versus cycling HSCs” value ([6]; after IFN-α treatment, MitoTracker Deep Red) was “not significantly different” and the “number of cycling (Ki67+) HSCs” value ([6]; subcutaneous injections 48 and 24 hours prior to cell isolation, control ca. 30) was about 50%.
